Patent US8901307B2, “Chemical compounds 251” (AstraZeneca AB, priority 2008, dated 2014)
Structures can show the parent of a compound that is named as a salt.

Tests used:
human His-PIM2 [23-299] = target: T1, human His-PIM2 [23-299] (Homo sapiens, UniProt Q9P1W9); test: PIM2 in-vitro mobility shift assay (Caliper LC3000, FL-Ahx-Bad phosphorylation); format: biochemical; conditions: 1.5 h; percent inhibition at 0.3 uM compound; read-out: PIM2 % I at 0.3 uM
T1 construct: purified human His-PIM2 [23-299] enzyme; His (N); host or cells: E. coli

human His-PIM1 [2-313] = target: T2, human His-PIM1 [2-313] (Homo sapiens, UniProt P11309); test: PIM1 in-vitro mobility shift assay (Caliper LC3000, FL-Ahx-Bad phosphorylation); format: biochemical; conditions: 1.5 h; percent inhibition at 0.3 uM compound; read-out: PIM1 % I at 0.3 uM
T2 construct: purified human His-PIM1 [2-313] enzyme; His (N); purchased University of Dundee, Scotland; host or cells: baculovirus system
How it was run: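 Compound preincubated 20 min at 25 °C with 2.4 nM PIM1, 3.6 µM FL-Ahx-Bad peptide and 240 µM ATP (1.2× mix concentrations). Reaction started with 24 mM MgCl2 mix, run 90 min at 25 °C, EDTA-stopped. Phospho/unphospho peptide separated by microfluidic mobility shift; percent inhibition from ratiometric turnover.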

T2 sequence (P11309 2-313): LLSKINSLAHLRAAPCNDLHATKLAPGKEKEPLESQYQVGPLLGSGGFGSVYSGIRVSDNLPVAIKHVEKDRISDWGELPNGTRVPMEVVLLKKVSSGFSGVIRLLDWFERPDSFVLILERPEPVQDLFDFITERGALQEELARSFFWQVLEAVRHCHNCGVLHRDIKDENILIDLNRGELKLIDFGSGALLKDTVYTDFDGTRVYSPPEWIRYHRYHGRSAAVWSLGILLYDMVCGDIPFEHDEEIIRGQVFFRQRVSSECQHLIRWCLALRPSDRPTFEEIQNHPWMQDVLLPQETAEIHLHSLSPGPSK
T1 sequence (Q9P1W9 23-299): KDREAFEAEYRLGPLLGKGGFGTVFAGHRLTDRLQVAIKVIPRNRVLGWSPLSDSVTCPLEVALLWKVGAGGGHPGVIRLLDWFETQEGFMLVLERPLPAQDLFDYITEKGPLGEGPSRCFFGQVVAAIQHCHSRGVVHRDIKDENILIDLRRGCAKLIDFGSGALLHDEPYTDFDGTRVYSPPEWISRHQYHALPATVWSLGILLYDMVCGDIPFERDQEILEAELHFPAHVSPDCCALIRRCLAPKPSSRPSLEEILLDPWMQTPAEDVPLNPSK

SMILES | inhibition at 0.3 µM (human His-PIM2 [23-299]) [%] | inhibition at 0.3 µM (human His-PIM1 [2-313]) [%]
NCc1cccc(C(=O)N2CCN(c3ccccc3/C=C3\SC(=O)NC3=O)CC2)c1 [Example 110, (Z)-5-(2-(4-(3-(aminomethyl)benzoyl)piperazin-1-yl)benzylidene)thiazolidine-2,4-dione hydrochloride] | 90.7 | 90.9
COc1cc(/C=C2\SC(=O)NC2=O)c(N2CCC(NCCN)C2)cc1OC (stereo not shown) [Example 111, (Z)-5-(2-(3-(2-aminoethylamino)pyrrolidin-1-yl)-4,5-dimethoxybenzylidene)thiazolidine-2,4-dione hydrochloride] | > 95 | > 95
NCCN1CCN(c2ccccc2/C=C2\SC(=O)NC2=O)CC1 [Example 112, (Z)-5-(2-(4-(2-aminoethyl)piperazin-1-yl)benzylidene)thiazolidine-2,4-dione hydrochloride] | > 95 | > 95
CNCCNC1CCN(c2cc(OC)c(OC)cc2/C=C2\SC(=O)NC2=O)C1 (stereo not shown) [Example 113, (Z)-5-(4,5-dimethoxy-2-(3-(2-(methylamino)ethylamino)pyrrolidin-1-yl)benzylidene)thiazolidine-2,4-dione hydrochloride] | > 95 | > 95
CNCCN1CCN(c2ccccc2/C=C2\SC(=O)NC2=O)CC1 [Example 114, (Z)-5-(2-(4-(2-(methylamino)ethyl)piperazin-1-yl)benzylidene)thiazolidine-2,4-dione hydrochloride] | > 95 | > 95
O=C1NC(=O)/C(=C/c2ccccc2N2CCNCC2)S1 [Example 115, (5Z)-5-(2-piperazin-1-ylbenzylidene)-1,3-thiazolidine-2,4-dione hydrochloride] | 76.1 | 93.3
O=C1NC(=O)/C(=C/c2ccccc2N2CCN(C(=O)C3CCCNC3)CC2)S1 (stereo not shown) [Example 116, 5-(2-(4-(piperidine-3-carbonyl)piperazin-1-yl)benzylidene)thiazolidine-2,4-dione hydrochloride] | > 95 | > 95
O=C1NC(=O)/C(=C/c2ccccc2N2CCN(C(=O)C3CNC3)CC2)S1 [Example 117, (5Z)-5-{2-[4-(azetidin-3-ylcarbonyl)piperazin-1-yl]benzylidene}-1,3-thiazolidine-2,4-dione hydrochloride] | > 95 | > 95
COc1cc(/C=C2\SC(=O)NC2=O)c(N2CCC(N)C2)cc1OC (stereo not shown) [Example 118, (5Z)-5-[2-(3-aminopyrrolidin-1-yl)-4,5-dimethoxybenzylidene]-1,3-thiazolidine-2,4-dione hydrochloride] | > 95 | > 95
COc1cc(/C=C2\SC(=O)NC2=O)c(N2CC[C@@H](NC(=O)CCCCN)C2)cc1OC [Example 119, (R,Z)-5-amino-N-(1-(2-((2,4-dioxothiazolidin-5-ylidene)methyl)-4,5-dimethoxyphenyl)pyrrolidin-3-yl)pentanamide hydrochloride] | 20.1 | 56.2
COc1cc(/C=C2\SC(=O)NC2=O)c(N2CC[C@H](NC(=O)CCCCN)C2)cc1OC [Example 120, (S,Z)-5-amino-N-(1-(2-((2,4-dioxothiazolidin-5-ylidene)methyl)-4,5-dimethoxyphenyl)pyrrolidin-3-yl)pentanamide hydrochloride] | 22.2 | 58.9
COc1cc(/C=C2\SC(=O)NC2=O)c(N2CC[C@H](NCCCN)C2)cc1OC [Example 121, (S,Z)-5-(2-(3-(3-aminopropylamino)pyrrolidin-1-yl)-4,5-dimethoxybenzylidene)thiazolidine-2,4-dione hydrochloride] | 87.4 | > 95
COc1cc(/C=C2\SC(=O)NC2=O)c(N2CC[C@@H](NCCCN)C2)cc1OC [Example 122A, (R,Z)-5-(2-(3-(3-aminopropylamino)pyrrolidin-1-yl)-4,5-dimethoxybenzylidene)thiazolidine-2,4-dione hydrochloride] | 55 | 88.2
COCCOc1cccc(/C=C2\SC(=O)NC2=O)c1N1CCC[C@@H](N)C1 [Example 122AA, (R,Z)-5-(2-(3-aminopiperidin-1-yl)-3-(2-methoxyethoxy)benzylidene)thiazolidine-2,4-dione hydrochloride] | > 95 | > 95
COCCOc1cccc(/C=C2\SC(=O)NC2=O)c1N1CC[C@H](N)C1 [Example 122AB, (S,Z)-5-(2-(3-aminopyrrolidin-1-yl)-3-(2-methoxyethoxy)benzylidene)thiazolidine-2,4-dione hydrochloride] | > 95 | > 95
N[C@@H]1CCCN(c2c(/C=C3\SC(=O)NC3=O)cccc2OC2CCCC2)C1 [Example 122AC, (R,Z)-5-(2-(3-aminopiperidin-1-yl)-3-(cyclopentyloxy)benzylidene)thiazolidine-2,4-dione hydrochloride] | > 95 | > 95
N[C@@H]1CCCN(c2c(/C=C3\SC(=O)NC3=O)cccc2OC2CCC2)C1 [Example 122AD, (R,Z)-5-(2-(3-aminopiperidin-1-yl)-3-cyclobutoxybenzylidene)thiazolidine-2,4-dione hydrochloride] | > 95 | > 95
NC(=O)c1ccc(N2CCC[C@@H](N)C2)c(/C=C2\SC(=O)NC2=O)c1 [Example 122AE, (R,Z)-4-(3-aminopiperidin-1-yl)-3-((2,4-dioxothiazolidin-5-ylidene)methyl)benzamide hydrochloride] | > 95 | > 95
NC(=O)c1ccc(N2CCC[C@H](N)C2)c(/C=C2\SC(=O)NC2=O)c1 [Example 122AF, (S,Z)-4-(3-aminopiperidin-1-yl)-3-((2,4-dioxothiazolidin-5-ylidene)methyl)benzamide hydrochloride] | 87.9 | 83.9
N[C@@H]1CCCN(c2ccc(C(=O)O)cc2/C=C2\SC(=O)NC2=O)C1 [Example 122AG, (R,Z)-4-(3-aminopiperidin-1-yl)-3-((2,4-dioxothiazolidin-5-ylidene)methyl)benzoic acid hydrochloride] | 86.7 | 68.9
N[C@H]1CCN(c2ccc(C(=O)O)cc2/C=C2\SC(=O)NC2=O)C1 [Example 122AH, (S,Z)-4-(3-aminopyrrolidin-1-yl)-3-((2,4-dioxothiazolidin-5-ylidene)methyl)benzoic acid] | 14 | 19
N[C@@H]1CCCN(c2c(/C=C3\SC(=O)NC3=O)cccc2-c2ccccc2)C1 [Example 122AI, (R,Z)-5-((2-(3-aminopiperidin-1-yl)biphenyl-3-yl)methylene)thiaozlidine-2,4-dione] | > 95 | > 95
NC[C@H]1CCN(c2c(Cl)cccc2/C=C2\SC(=O)NC2=O)C1 [Example 122B, (R,Z)-5-(2-(3-(aminomethyl)pyrrolidin-1-yl)-3-chlorobenzylidene)thiazolidine-2,4-dione] | 92.3 | > 95
